Legend:
Assay type in all cases: cell-based, human
[1] = tested on: CCD-18Co normal colon fibroblasts; experiment: Cytokine stimulation of fibroblast monocultures, CAF marker immunofluorescence; conditions: fibroblast monoculture serum-starved 24 hours, stimulated 48 hours, vs untreated fibroblasts
Protocol: A panel of 5 CAF markers were then used to stain the cultures and the expression levels of expression of the markers calculated from individual segmented fibroblasts.
First, we treated normal human fibroblasts with a panel of cytokines to induce activation, and then assessed CAF marker expression by immunofluorescence. Fibroblast monocultures were serum-starved for 24 hours then stimulated with TGF-β, TNF alpha, PDGFbb, acidic FGF or other cytokines for 48 hours. Cells were then fixed, permeabilized and stained with a panel of immunofluorescent CAF markers and imaged by high-content microscopy.

[2] = tested on: fibroblasts (BJ, CCD18-Co); experiment: Activin A, Activin B and TGF-β dose response for CAF induction in unstimulated fibroblasts; conditions: for IC50 values, 1 hr vs. 48 hr timepoints: BJ or CCD18-Co fibroblast mono-cultures in minimal media (N=2); for phenotypic changes in fibroblasts (SMAD2/3, phospho-CREB, ASMA, Endosialin): BJ-fibroblasts; for EC50 values (fibroblast induction into a CAF like state, composite machine learning score): depending on condition tested, BJ, CCD18-Co, 1 hr and 48 hr; for ASMA score (intensity and number of ASMA filaments) vs. TGF-β treatment: highest dose, 48 hours
Protocol: FIG. 3 Activin and TGF-β both induce a CAF phenotype in fibroblast cell-lines. […] B) Quantification of ASMA levels and plate coverage further reinforce these changes downstream of addition of both Activin and TGF-β. C) TGF-β and Activin A were added over a range of doses to BJ or CCD18-Co colon fibroblasts grown as mono-cultures in minimal media (N=2). Cells were stained for Actin, Endosialin/CD248, DAPI/Nuclei, and αSMA. Machine Learning (Multiple Instance Learning) models were trained on the highest and lowest doses to generate dose-response curves.
To test whether Activin signaling could induce CAF activation similarly to TGF-β we added serial dilutions (3-fold) of recombinant Activin A ([…] max concentration) and Activin B ([…] max concentration) to unstimulated fibroblasts (BJ, CCD18-Co) to generate dose response curves for Activin A and B. A serial 3-fold dilution of TGF-β was also tested as a positive control ([…] max concentration). A number of high-content markers of CAF activation we used as endpoints. Namely, cells were probed for SMAD2/3 translocation to the nucleus and phospoCREB levels at 1 hr, as a marker of direct ACVR/TGFBR stimulation. ASMA and Endosialin levels were then probed at 48 hrs to quantify CAF induction levels following Activin and TGF-β stimulation. At the highest dose, at 1 hr we saw SMAD 2/3 nuclear translocation alongside phospho-CREB up-regulation, indicating receptor engagement and activity in both Activin and TGF-β treated conditions (FIG. 3A).

[3] = tested on: fibroblasts grown in the presence of either HCT 116 cells or HT-29 cells; experiment: TGF-β pathway inhibitors in fibroblast-cancer cell co-cultures (CAF activation); conditions: for block of CAF activation in coculture (FIG. 2B): BJ fibroblasts with HT-29 cells, TGF-β 1 ng/ml; for activity on CAF phenotypes in co-culture: identical doses to those used in the previous test
Protocol: (§1) FIG. 2 TGF-β inhibitors perform poorly in co-culture compared to mono-culture. (A) Normal BJ fibroblasts were cultured in either minimal media or alongside HT-29 CRC cancer cells. 6-different TGF-β inhibitors were added alongside TGF-β [1 ng/ml]ligand. […] (B) This is most apparent comparing the effects of three TGF-β inhibitors with varying selectivity.
(§2) In brief, monocultures of BJ or CCD18-Co fibroblasts were stimulated with TGF-β for 48 hours in the presence of serial dilutions of each TGF-β inhibitor and fibroblast activation was assessed by immunofluorescence using αSMA and CD248. The probability of fibroblast activation was assessed by a machine learning model, Multiple Instance Learning (MIL) trained on unstimulated fibroblasts (no drug, no TGF-β) as a negative control, and TGF-β stimulated fibroblasts (with vehicle control) as positive control. For co-culture comparisons, the same fibroblasts were grown in the presence of either HCT 116 cells or HT-29 cells and treated with the same serial dilutions of small molecule TGF-β. For these co-cultures, the addition of exogenous TGF-β is not required as the cancer cells secrete sufficient TGF-β for maximal fibroblast activation. […] This observation was confirmed by CellProfiler analysis where individual fibroblasts were segmented and αSMA and stress-fiber intensity was quantified (FIG. 2A).
We took an mAb inhibitor of TGFBR2, LY3022859, and assessed the performance of this inhibitor in co-culture alongside SIS3 and […], (FIG. 2 B). […] In contrast, both LY364947 and SIS3 were active at identical doses to those used in the previous test. Again, exogenous TGF-β was dispensable for this effect.

[4] = tested on: BJ or CCD18-Co fibroblasts; experiment: TGF-β pathway inhibitors in TGF-β stimulated fibroblast monocultures (αSMA/CD248 immunofluorescence, MIL model); conditions: 48 hours
Protocol: as §1
We then tested the relative potency of a panel of TGF-β pathway inhibitors in monoculture fibroblasts stimulated with TGF-β compared to co-culture with CRC cells that produce their own, similar levels of TGF-β.
as §2, with “control.” for “control. For co-culture comparisons, the same fibroblasts were grown in the presence of either HCT 116 cells or HT-29 cells and treated with the same serial dilutions of small molecule TGF-β. For these co-cultures, the addition of exogenous TGF-β is not required as the cancer cells secrete sufficient TGF-β for maximal fibroblast activation.”

| Compound | IC50 values, 1 hr vs. 48 hr timepoints [2] | phenotypic changes in fibroblasts (SMAD2/3, phospho-CREB, ASMA, Endosialin) [2] | block of CAF activation in coculture (FIG. 2B) [3] | activity on CAF phenotypes in co-culture [3] | EC50 values (fibroblast induction into a CAF like state, composite machine learning score) [2] | ASMA score (intensity and number of ASMA filaments) vs. TGF-β treatment [2] | also measured |
| --- | --- | --- | --- | --- | --- | --- | --- |
| TGF-β: TGF-β ligand added as cytokine stimulus and positive control | lower for 1 hr timepoints vs. 48 hr timepoints | induce similar phenotypic changes | – | – | – | – | expression of alpha-smooth muscle actin (αSMA), podoplanin (PDPN) and CD248 [1]: increased expression |
| COc1cc2c(cc1OC)CN(C(=O)/C=C/c1c(-c3ccccc3)n(C)c3ncccc13)CC2 [SIS3] | – | – | able to block CAF activation | active | – | – | response in co-culture among the inhibitors tested (rightward shift of IC50) [3]: best response; reduction of αSMA levels in coculture ([3]; % of the control, conditions with >5% cell death excluded): more than 50% |
| Activin B: recombinant Activin B | – | induce similar phenotypic changes | – | – | 4 to 9 µg/mL | no difference | – |
| c1ccc(-c2[nH]ncc2-c2ccnc3ccccc23)nc1 [LY364947] | – | – | blocks CAF activation at high doses | active | – | – | – |
| Cc1cccc(-c2nn3c(c2-c2ccnc4ccc(C(N)=O)cc24)CCC3)n1 [LY2157299] | – | – | – | – | – | – | effectiveness in monoculture (inhibition of αSMA) [4]: effective; inhibition of αSMA in co-culture ([3]; even up to 100 μM): very little inhibition |
| Activin A: recombinant Activin A | lower at the 48 hr timepoint in CCD18 colon fibroblasts | induce similar phenotypic changes | – | – | 10 to 30 µg/mL | no difference | – |

From US20250059267A1, “COMBINATION THERAPY FOR TREATMENT OF TUMORS COMPRISING CANCER-ASSOCIATED FIBROBLASTS” (PHENOMIC AI, priority 2021, published 2025)
